# Test results published in article PMC6967409 (Frontiers in Chemistry, 2020).
# “And” between values parts separate entries of the source, which are not always exact repeats. Equal values may be shown once. Read-outs that look alike come from different tables or passages of the source.
# Tests used:
# [1] = test system: P. berghei ANKA GFP-Luc-SMcon sporozoites; test: P. berghei-luciferase liver stage bioluminescence assay (causal prophylactic mode) in HepG2-CD81 cells; type: cell-based, Plasmodium berghei; details: for Emax: 48 h, read-out: P.berghei-Luciferase Liver Stage Bioluminescence Assay: Maximum measured (%)
# Protocol: (§1) Briefly, HepG2-CD81 cells were seeded into 1,536 well plates containing 50 nL of test and control compounds diluted into DMSO. […] Next, 2 μL of luciferin reagent (Promega BrightGlo) was added to each well and luciferase activity was detected using a Perkin Elmer Envision plate reader. […] In parallel, plates were processed without sporozoites for HepG2 toxicity measurements.
# (§2) In continuation of the transmission blocking theme, it is important to establish activities against liver stage parasites. […] This assay uses ultra-high-throughput screening methods optimized for a 1536-well format and a HepG2 human hepatoma cell line. […] To establish selectivity of the compounds for the parasite in the liver stage of infection, cytotoxicity was determined by measuring bioluminescence from the reaction between free ATP of compound-treated, uninfected hepatocytes and a luciferase reporter system.
# HepG2 cells = test: HepG2 cytotoxicity bioluminescence assay (CellTiterGlo, ATP); type: cell-based, human; details: two biological replicates listed in one cell
# Protocol: as §1, §2
# [2] = as above; type: cell-based, human; details: human, uninfected HepG2-CD81 cells; for IC50 at 72 h: two biological replicates listed in one cell; for EC50 at 72 h: uninfected HepG2, ATP bioluminescence
# Protocol: as §1, §2
# [3] = test system: asexual P. falciparum NF54, Dd2, K1, W2; test: Asexual P. falciparum, metabolic (pLDH) and proliferative (SYBR Green I) platforms; type: cell-based; details: Plasmodium falciparum; drug-sensitive and -resistant parasites, both assay platforms; read-out: IC50, asexual P. falciparum metabolic activity and proliferation
# Protocol: Data analysis was performed using GraphPad Prism 7.
# The in vitro activities of the new derivatives were determined against drug sensitive NF54 and multi-drug resistant Dd2, K1, and W2 intraerythrocytic asexual P. falciparum malaria parasite strains using both a metabolic (parasite LDH) and a proliferative (SYBR Green I fluorescence) assay readout (Table 1).
# P. falciparum W2 = test: Proliferative (SYBR Green I) assay, asexual parasites, 96 h; type: cell-based; details: Plasmodium falciparum, ±SEM
# Protocol: (§3) P. falciparum parasites (NF54, K1, and W2) were cultured in vitro in human erythrocytes (A^+ or O^+) under 90% N2, 5% CO2, and 5% O2 atmospheric conditions with supplemented RPMI 1640 media (Sigma Aldrich) containing Albumax II, as previously described (Verlinden et al., [2011]). This study was carried out according the guidelines set out by the Faculty of Health Sciences Ethical Committee, Ethical Clearance no. EC-120821/077. The protocol was approved by the Faculty of Health sciences ethical committee at the University of Pretoria. All subjects gave written informed consent in accordance with the Declaration of Helsinki. Parasite proliferation was monitored microscopically using Giemsa stained smears. Synchronized ring stage parasites (>95%) were obtained using a 5% D-sorbitol (Sigma Aldrich) treatment. […] Gametocyte cultures were kept stationary under 90% N2, 5% CO2, and 5% O2 atmospheric conditions at 37°C and treated with 50 mM N-acetyl-glucosamine (NAG) to eliminate residual invasion of asexual parasites.
# (§4) Working solutions of the derivatives were prepared from a 10 mM stock solution in 100% DMSO in supplemented RPMI 1640 media containing Albumax II with a final DMSO concentration of <0.1%, previously determined as being non-toxic to intraerythrocytic asexual parasites and gametocytes. Dose responses were assayed using a two-fold serial drug dilution on in vitro >95% ring stage intraerythrocytic P. falciparum parasites at 37°C under 90% N2, 5% CO2, and 5% O2 atmospheric conditions, detecting both parasite lactate dehydrogenase (pLDH) activity as a metabolic marker following a 48 h drug exposure (1.5–2% parasitemia and 2% hematocrit; Makler et al., [1993]) and SYBR Green I fluorescence as proliferative marker following a 96 h drug exposure (1% parasitemia and 1% hematocrit). […] Data analysis was performed using GraphPad Prism 7.
# P. falciparum NF54 [4] = test: as above; type: cell-based; details: Plasmodium falciparum, ±SEM
# Protocol: as §3, §4
# P. falciparum K1 = test: as above; type: cell-based; details: Plasmodium falciparum, ±SEM
# Protocol: as §3, §4
# P. falciparum NF54 [5] = test: Metabolic (parasite LDH) assay, asexual ring stage parasites, 48 h; type: cell-based; details: Plasmodium falciparum, pLDH, CQ-sensitive NF54
# Protocol: as §3, §4
# P. falciparum Dd2 = test: as above; type: cell-based; details: Plasmodium falciparum, pLDH, Dd2 CQ, pyrimethamine resistant
# Protocol: as §4
# Cytotoxicity, MTT assay = type: cell-based; details: Chinese hamster, CHO cells
# Protocol: (§5) Cytotoxicity (EC50) was determined against Chinese hamster ovarian (CHO) using a 3-(4,5-dimethylthiazol-2-yl)-2,5-diphenyltetrazolium bromide (MTT) assay and hepatocellular carcinoma cells (HepG2) using the Cytoselect LDH cytotoxicity assay kit (Cell Biolabs).
# [6] = Cytotoxicity, Cytoselect LDH cytotoxicity assay kit; type: cell-based; details: human, HepG2 cells
# Protocol: as §5
# [7] = test system: P. falciparum NF54 early stage gametocytes (>90% stage I–III); test: Gametocytocidal luciferase reporter assay, early stage, 48 h; type: cell-based; details: Plasmodium falciparum, NF54, 48 h, read-out: Early Stage (EG, Luc 48 h) IC50
# Protocol: as §3
# (§6) Gametocytocidal activity was determined using the luciferase reporter line (Reader et al., [2015]) to derive dose responses with two-fold serial drug dilutions for 48 h against early stage gametocytes (day 5 post-induction population, >90% stage I–III) and 10-fold serial drug dilutions for 72 h against late stage gametocytes (day 10 post-induction population, >90% late stage IV–V) (2% gametocytemia, 2% hematocrit), at 37°C under 90% N2, 5% CO2, and 5% O2 atmospheric conditions.
# [8] = test system: P. falciparum NF54 late stage gametocytes (>90% stage IV and V); test: Gametocytocidal luciferase reporter assay, late stage, 72 h; type: cell-based, Plasmodium falciparum
# Protocol: as §3, §6
# [9] = Plasmodium berghei, two biological replicates listed in one cell
# [10] = Plasmodium berghei, HepG2, 48 h, liver stage, HepG2 host cells, luciferase after 48 h, ±SD, read-out: P. berghei sporozoites IC50
# [11] = Plasmodium berghei, two biological replicates listed in one cell, read-out: P.berghei-Luciferase Liver Stage Bioluminescence Assay: IC50
# [12] = two biological replicates listed in one cell, read-out: P.berghei-Luciferase Liver Stage Bioluminescence Assay: IC50
# [13] = >90% stage I–III gametocytes, ±SEM
# [14] = Plasmodium falciparum, NF54, 72 h, read-out: Late Stage (LG, Luc 72 h) IC50, >90% stage IV and V gametocytes, ±SEM
# [15] = read-out: Late Stage (LG, Luc 72 h) IC50, >90% stage IV and V gametocytes, ±SEM
Compound,IC50 (P. falciparum W2) [nM],IC50 (P. falciparum NF54 [4]) [nM],IC50 (P. falciparum K1) [nM],IC50 (P. falciparum NF54 [5]) [nM],IC50 (P. falciparum Dd2) [nM],"EC50 (Cytotoxicity, MTT assay) [nM]",EC50 [6] [nM],"IC50 [7, 13] [nM]","IC50 [8, 14] [nM]",also measured
O=C1C(O)=C([C@H]2CC[C@H](c3ccc(Cl)cc3)CC2)C(=O)c2ccccc21 [Atovaquone],–,–,–,–,–,–,–,–,–,"Emax [1, 9]: 92.9%; IC50 [1, 10]: 2.52 ± 0.997 nM; IC50 [1, 11]: 3.23 nM; inhibition at 0.5 µM ([1]; Plasmodium berghei, Conc. 0.5 μM, read-out: P. berghei sporozoites Maximum inhibition %): 94.8 ± 2.76%; IC50 [1, 12]: 1.81 nM; HepG2 Cytotoxicity Bioluminescence Assay: Maximum measured (%) (HepG2 cells): 16.9% and 8.57%; IC50 (HepG2 cells): > 250 nM; IC50 at 72 h [2]: > 250 nM; EC50 at 72 h [2]: > 250 nM"
CCCCCCNC(=O)N1CCN([C@@H]2O[C@@H]3O[C@@]4(C)CC[C@H]5[C@H](C)CC[C@@H]([C@H]2C)[C@@]35OO4)CC1 [Compound 20],–,–,–,–,–,–,–,–,–,IC50 [3]: 50 to 100 nM
C[C@H]1[C@H](N2CCN(S(=O)(=O)c3cccc(C(F)(F)F)c3)CC2)O[C@@H]2O[C@@]3(C)CC[C@H]4[C@H](C)CC[C@@H]1[C@@]24OO3 [Compound 16],4.6 ± 0.2,3.4 ± 0.6,5,1.13 ± 0.12,7.46 ± 1.07,> 178000,431,19.7 ± 9.9,0.4 to 0.7,"IC50 [8, 15]: 0.4 ± 0.3 nM"
CCCCCCCCCCCCCCCCS(=O)(=O)N1CCN([C@@H]2O[C@@H]3O[C@@]4(C)CC[C@H]5[C@H](C)CC[C@@H]([C@H]2C)[C@@]35OO4)CC1 [Compound 14],–,–,–,–,–,–,–,–,–,IC50 [3]: 50 to 100 nM
"CO[C@H]1O[C@@H]2O[C@@]3(C)CC[C@H]4[C@H](C)CC[C@@H]([C@H]1C)[C@@]24OO3 [Artemether 3, artemether]",–,–,–,–,–,–,–,–,–,"IC50 [1, 10]: > 10000 nM; inhibition at 10 µM ([1]; Plasmodium berghei, Conc. 10 μM, read-out: P. berghei sporozoites Maximum inhibition %): 49.4%"
C[C@H]1[C@H](NS(=O)(=O)N2CCN(c3ccc(C(F)(F)F)cn3)CC2)O[C@@H]2O[C@@]3(C)CC[C@H]4[C@H](C)CC[C@@H]1[C@@]24OO3 [Compound 30],3 ± 1,3.3 ± 0.3,4.3 ± 1.3,1.8 ± 0.6,9.64 ± 0.6,34300,311,19.3 ± 6.2,4 ± 3.8,–
C[C@H]1[C@H](N2CCN(C(=O)Nc3ccc(C(C)(C)C)cc3)CC2)O[C@@H]2O[C@@]3(C)CC[C@H]4[C@H](C)CC[C@@H]1[C@@]24OO3 [Compound 22],1.48 ± 0.14,1.87 ± 0.12,1.12 ± 0.08,2.11 ± 0.53,24.7 ± 2.79,2920,616,–,17.7 ± 15.1,IC50 [7]: 45.9 ± 9.9 nM
C[C@H]1[C@H](NS(=O)(=O)N2CCN(c3ccccn3)CC2)O[C@@H]2O[C@@]3(C)CC[C@H]4[C@H](C)CC[C@@H]1[C@@]24OO3 [Compound 29],3.3 ± 0.7,4.3 ± 0.4,4.9 ± 0.9,1.68 ± 0.18,6.4 ± 1.4,> 197000,173,24.7 ± 4.9,0.04 ± 0.03,–
CCCCCCCCCCCCCCCCNC(=O)N1CCN([C@@H]2O[C@@H]3O[C@@]4(C)CC[C@H]5[C@H](C)CC[C@@H]([C@H]2C)[C@@]35OO4)CC1 [Compound 21],–,–,–,–,–,–,–,–,–,IC50 [3]: 50 to 100 nM
CCCCS(=O)(=O)N1CCN([C@@H]2O[C@@H]3O[C@@]4(C)CC[C@H]5[C@H](C)CC[C@@H]([C@H]2C)[C@@]35OO4)CC1 [Compound 13],4.4 ± 1,2.7 ± 0.6,3.1 ± 0.1,–,–,–,2720,21.5 ± 10.4,0.4 to 0.7,"IC50 [8, 15]: 0.5 ± 0.3 nM"
COc1ccc(C[C@H](N)C(=O)N[C@H]2[C@@H](O)[C@H](n3cnc4c(N(C)C)ncnc43)O[C@@H]2CO)cc1 [Puromycin],–,–,–,–,–,–,–,–,–,"Emax [1, 9]: 107%; IC50 [1, 10]: 22.7 ± 4.53 nM; IC50 [1, 11]: 19.5 nM; inhibition at 5 µM ([1]; Plasmodium berghei, Conc. 5 μM, read-out: P. berghei sporozoites Maximum inhibition %): 110 ± 4.24%; IC50 [1, 12]: 25.9 nM; HepG2 Cytotoxicity Bioluminescence Assay: Maximum measured (%) (HepG2 cells): 102.0% and 105.0%; IC50 (HepG2 cells): 120 nM; IC50 at 72 h [2]: 114 nM; EC50 at 72 h [2]: 117 nM"
CC(=O)Nc1ccc(S(=O)(=O)N2CCN([C@@H]3O[C@@H]4O[C@@]5(C)CC[C@H]6[C@H](C)CC[C@@H]([C@H]3C)[C@@]46OO5)CC2)cc1 [Compound 15],5.4 ± 0.5,2.7 ± 0.7,3.4 ± 0.3,1.3 ± 0.5,3.54 ± 0.32,> 177000,1950,8 ± 2.3,–,–
C[C@H]1[C@H](N2CCN(S(=O)(=O)c3cccc(F)c3)CC2)O[C@@H]2O[C@@]3(C)CC[C@H]4[C@H](C)CC[C@@H]1[C@@]24OO3 [Compound 17],4.6 ± 0.2,3.1 ± 0.2,4.85 ± 1.1,2 ± 0.6,6.2 ± 0.7,> 196000,637,13.1 ± 7.2,0.4 to 0.7,"IC50 [8, 15]: 0.6 ± 0.4 nM"
C[C@H]1[C@H](N2CCN(S(=O)(=O)c3ccc(F)cc3)CC2)O[C@@H]2O[C@@]3(C)CC[C@H]4[C@H](C)CC[C@@H]1[C@@]24OO3 [Compound 19],4.8 ± 0.5,3.4 ± 0.4,4.2 ± 0.1,1.65 ± 0.04,9.8 ± 0.4,> 196000,558,12.1 ± 4.5,0.7 ± 0.5,–
